Test results: patent US20210299039A1, “COMPOSITIONS AND METHODS FOR TREATING OCULAR DISEASE BY CONTACT LENS MEDIATED DRUG DELIVERY” (EyeGate Pharmaceuticals, Inc., priority 2020, published 2021)

Experiments:
[1] = rabbit, in vivo
Experimental: Following sterilization, lenses were handled aseptically. […] Control (drug-free) lenses were soaked and then stored (at 4° C.) in sterile isotonic saline until use. Controls were used only for retention and ocular health assessments.
A total of 11 New Zealand White rabbits were used in this study: 2 animals were in the control group and 9 animals in the treatment group. The nictitating membranes of the rabbits were removed and the rabbits allowed to recover for 2 weeks prior to study initiation. For the study, a contact lens was placed on each eye of an animal and a tarsorrhaphy performed by placing a single staple in the corner of the eyelids to aid in retention of the contact lenses. Cage side observations of the animals occurred every 2 hours to monitor lens retention and ocular health. At 2, 4, and 8 hours following lens placement, 3 animals in the treatment group were euthanized, the staple and contact lens from each eye were removed, and ocular health was noted. The following tissues were then isolated: aqueous humor (AH), vitreous humor (VH), retina, choroid, cornea, conjunctiva, and sclera. The aqueous humor was retrieved from each eye using a sterile 30-gauge needle on a 1 mL syringe while the eyes were still intact in the animal. Tissues were transferred to pre-weighed, pre-labeled tubes in a box of dry ice. […]

[2] = Drug loading by soaking hydrogel discs in drug solution (weight gain); type: physicochemical; conditions: 48-hour soak, HEMA-based discs with 15% MPMA vs without; FIG. 5
Experimental: The HEMA-based hydrogels of formulation 5 in Table 1, were made with and without 15% MPMA. Unreacted components were extracted by washing in DI water for at least 3 hours, followed by washing in a 50:50 mixture of reagent alcohol and DI water for at least 3 hours, then washing again in DI water for at least 3 hours. Discs 15 mm in diameter were punched out and dried in a vacuum dessicator for at least 72 hours. The dry discs were weighed to get an initial weight without drug. Discs were then placed in a drug solution for 48 hours on a shaker at 200 rpm. Drug solutions used in this study can be found in Table 2. After 48 hours, the discs were removed from the drug solution, patted with a Kimwipe to remove solution from the surface, and then dried in a vacuum dessicator for at least 48 hours. The dry drug-loaded discs were weighed, and the amount of drug loaded was determined as the drug-loaded disc weight minus the initial weight.

[3] = Drug release into PBS and extraction from HEMA-based hydrogel discs; type: physicochemical; conditions: for effect of MPMA on total amount of drug released and extracted: HEMA-based discs with MPMA vs without, FIG. 7; for effect of MPMA on release over time: HEMA-based material with vs without MPMA, FIGS. 10 and 11
Experimental: At 0.5, 1, 2, 4, 6, and 8 hours the PBS was removed and fresh PBS was added.

[4] = Loss of crosslinked-in dexP during extraction washes (HPLC-UV); type: physicochemical; conditions: formulation 4 hydrogels with MPMA compared to without MPMA; FIG. 4
Experimental: Hydrogels were placed in deionized (DI) water for 35 minutes at 37° C./200 rpm, followed by 3 times in isopropyl alcohol for 25 minutes each at 37° C./200 rpm, then 2 additional times in DI water for 25 minutes each.

[5] = dexP release from silicone-based hydrogel discs into PBS; type: physicochemical
Description: Silicone-based hydrogels similar to formulation 2 in Table 1, but with only 1% EGDMA, were made with and without 15% MPMA. Unreacted components were extracted as described in Example 4.

[6] = In vitro drug release into and across sclera tissue (Franz cell); type: in vitro ADME, Porcine; conditions: 4 minutes, 4 hours, 8 hours; HPLC-UV; FIG. 13
Description: An experimental setup (shown in FIG. 12) for determining drug release from a soft contact lens hydrogel disc into and across sclera tissue was created using a glass Franz cell. The Franz cell was filled with PBS. A cell strainer (BD Falcon, […] nylon, 23 mm ID) was fitted onto the Franz cell as a framework to hold the sclera and hydrogel disc together. Porcine sclera tissue (21 mm diameter, 1 mm thick) was placed in the cell strainer, the drug-loaded hydrogel disc was placed onto the sclera tissue, and a glass bottle was placed on top of the disc to firmly hold the assembly together in the cell strainer. At 4 minutes, 4 hours, or 8 hours, the sclera tissue was removed and a sample of the PBS from the Franz cell was taken. The sclera tissue was digested using collagenase, and the amount of dexP in the digested sclera tissue and PBS was determined using HPLC-UV.

[7] = Formulation 3
Experimental: HEMA-based hydrogels were prepared as described in Example 4 using Formulation 3.

effect of MPMA on release over time [3] | SMILES | effect of MPMA on amount of drug loaded [2] | effect of MPMA on total amount of drug released and extracted [3] | also measured
very little effect | Cc1ncc([N+](=O)[O-])n1CCO [Metronidazole] | did not affect loading | did not affect the amount released and extracted | total amount of drug released and extracted compared between drugs ([3]; 10 mg/ml soaking solution for metronidazole vs 40 mg/ml for the other drugs): lower than for dexP and predP
significantly reduced | NC[C@H]1O[C@H](O[C@H]2[C@H](O)[C@@H](O[C@H]3O[C@H](CO)[C@@H](O)[C@H](N)[C@H]3O)[C@H](N)C[C@@H]2N)[C@H](N)C[C@@H]1O [Tobramycin] | did not affect loading | significantly decreased the amount of drug released and extracted | –

More lines, now with the values behind:

SMILES | effect of MPMA on release over time [3] | effect of MPMA on amount of drug loaded [2] | effect of MPMA on total amount of drug released and extracted [3] | also measured
C[C@@H]1C[C@H]2[C@@H]3CCC4=CC(=O)C=C[C@]4(C)[C@@]3(F)[C@@H](O)C[C@]2(C)[C@@]1(O)C(=O)COP(=O)(O)O [dexP, dexamethasone phosphate] | – | significantly increased the amount of drug loaded | significantly greater | detection in ocular tissues [1]: detected in the tissues of treated animals at each timepoint; drug reaching the back of the eye [1]: drug concentrations observed in the VH, retina, and choroid; amount of incorporated dexP removed during water and alcohol washes [4]: very little of the incorporated dexP was removed; total amount of dexP released ([5]; silicone-based discs with 15% MPMA vs without, initial soak, release in PBS, FIG. 6A): significantly greater; amount of dexP released after re-loading ([5]; silicone-based discs with MPMA vs without, re-soaked overnight, FIG. 6B): greater amount of dexP release; amount of dexP in sclera tissue and PBS reservoir [6]: increasing amount of dexP in the sclera tissue and PBS over time
C[C@]12C=CC(=O)C=C1CC[C@@H]1[C@@H]2[C@@H](O)C[C@@]2(C)[C@H]1CC[C@]2(O)C(=O)COP(=O)(O)O [predP, Prednisolone phosphate] | – | significantly increased the amount of drug loaded | significantly greater | –
C[C@@H]1C[C@H]2[C@@H]3CCC4=CC(=O)C=C[C@]4(C)[C@@]3(F)[C@@H](O)C[C@]2(C)[C@@]1(O)C(=O)COP(=O)([O-])[O-].[Na+].[Na+] [disodium dexP] | – | – | – | loading of dexP, disodium form compared to free acid form ([7]; 7 days soak in 40 mg/ml solution, FIG. 16): decreased loading and release; release of dexP, disodium form compared to free acid form ([7]; PBS up to 8 hours, FIG. 17): decreased loading and release
